This note sets out measurements from patent publication US9073954B2, “5-substituted benzimidazolium compounds” (Boehringer Ingelheim International GmbH, priority 2013, dated 2015).

A short description of data set [1]: Permeability in CALU-3 cells. It is filed as in vitro ADME. As to conditions: human, CALU-3 monolayers, 10 μM compound, pH 7.4, 37° C.; for Papp A→B at 90 min, 10 μM: apical-to-basal; for Papp B→A at 90 min, 10 μM: basal-to-apical. The protocol:
Permeability in CALU-3 Cells:
Permeability measurements across polarized, confluent CALU-3 cell monolayers grown on permeable filter supports are used to provide information on the potential of a compound to pass the lung epithelium. Apparent permeability coefficients (Papp) of the compounds across the CALU-3 cell monolayers are measured (pH 7.4, 37° C.) in apical-to-basal (AB) and basal-toapical (BA) transport direction.
CALU-3 cells (1-2×10^5 cells/1 cm^2 area) are seeded on filter inserts (Costar transwell polycarbonate filters, 0.4 μm pore size) and cultured (for 10-12 days DMEM) until tight monolayers are formed. Compounds of interest are dissolved in appropriate solvent (DMSO, 10 mM stock solution). Stock solutions are diluted with HTP-4 buffer (128.13 mM NaCl, 5.36 mM KC, 1 mM MgSO4, 1.8 mM CaCl2, 4.17 mM NaHCO3, 1.19 mM Na2HPO4×7H2O, 0.41 mM NaH2PO4xH2O, 15 mM HEPES, 20 mM glucose, 0.25% BSA, pH 7.4) to prepare the transport solutions (10 μM compound, final DMSO<=0.5%). The transport solution (TL) is applied to the apical or basolateral donor side for measuring A-B or B-A permeability (3 filter replicates), respectively. The receiver side contains the same buffer as the donor side. After 30 min of accommodation, samples are collected at the start t0=0 min and at the end of the experiment tn=90 min from the donor and at 0, 30, 60, and 90 min also from the receiver chamber. Volume removed is replenished by HTP-4 buffer. The compound concentration in the samples is measured by HPLC-MS/MS or scintillation counting. The permeability coefficient (Papp) and efflux ratio are calculated according to: Papp [cm/s]=(concentration receiver [nM]*volume receiver [mL]/time interval [sec])*(1/filter area)*(1/donor concentration [nM])
With example compounds given above, the following permeability values were determined in the CALU-3 cells assay: […]

Data set [2] concerns the target T1, ENaC (Epithelial Sodium Channel) (Mus musculus, UniProt Q61180+Q9WU38+Q9WU39).
T1 construct: Mouse kidney M-1 cells were cultivated in DMEM; endogenous in cells; host or cells: mouse kidney M-1 cells
T1 sequence (Q61180 1-699): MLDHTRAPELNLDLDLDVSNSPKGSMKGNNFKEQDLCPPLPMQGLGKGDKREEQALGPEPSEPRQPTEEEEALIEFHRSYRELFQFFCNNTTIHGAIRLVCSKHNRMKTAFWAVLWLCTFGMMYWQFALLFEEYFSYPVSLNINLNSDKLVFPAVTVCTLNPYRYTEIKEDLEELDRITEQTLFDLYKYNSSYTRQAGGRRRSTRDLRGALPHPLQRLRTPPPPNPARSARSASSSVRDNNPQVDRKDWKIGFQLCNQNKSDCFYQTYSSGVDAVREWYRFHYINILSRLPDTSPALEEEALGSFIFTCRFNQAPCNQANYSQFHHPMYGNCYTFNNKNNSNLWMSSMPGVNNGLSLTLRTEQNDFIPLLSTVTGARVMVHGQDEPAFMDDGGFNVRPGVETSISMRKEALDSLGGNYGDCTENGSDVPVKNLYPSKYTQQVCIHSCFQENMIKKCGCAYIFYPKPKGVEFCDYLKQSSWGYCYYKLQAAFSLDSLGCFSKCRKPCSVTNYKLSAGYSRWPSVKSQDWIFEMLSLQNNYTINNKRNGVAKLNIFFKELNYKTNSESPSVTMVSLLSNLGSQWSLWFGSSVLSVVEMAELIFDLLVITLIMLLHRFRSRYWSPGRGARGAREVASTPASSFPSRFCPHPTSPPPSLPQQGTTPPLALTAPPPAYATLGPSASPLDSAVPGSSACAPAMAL
T1 sequence (Q9WU38 1-638): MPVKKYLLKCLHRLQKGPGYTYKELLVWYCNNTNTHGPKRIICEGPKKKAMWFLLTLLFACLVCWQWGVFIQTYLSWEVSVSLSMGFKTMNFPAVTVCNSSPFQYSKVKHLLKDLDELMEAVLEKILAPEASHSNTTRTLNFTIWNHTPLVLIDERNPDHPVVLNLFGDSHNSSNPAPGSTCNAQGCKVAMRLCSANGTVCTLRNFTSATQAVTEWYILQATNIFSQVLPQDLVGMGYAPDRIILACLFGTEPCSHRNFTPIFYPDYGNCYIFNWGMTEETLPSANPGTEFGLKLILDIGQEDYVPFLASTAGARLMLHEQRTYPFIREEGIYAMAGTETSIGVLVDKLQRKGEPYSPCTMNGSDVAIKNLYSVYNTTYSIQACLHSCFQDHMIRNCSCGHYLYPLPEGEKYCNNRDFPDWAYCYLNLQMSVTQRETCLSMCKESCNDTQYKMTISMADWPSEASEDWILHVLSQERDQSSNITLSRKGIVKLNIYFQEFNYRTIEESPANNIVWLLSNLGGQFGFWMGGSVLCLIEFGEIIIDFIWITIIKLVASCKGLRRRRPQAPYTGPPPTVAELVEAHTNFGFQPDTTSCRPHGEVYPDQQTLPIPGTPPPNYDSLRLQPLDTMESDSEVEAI
T1 sequence (Q9WU39 1-655): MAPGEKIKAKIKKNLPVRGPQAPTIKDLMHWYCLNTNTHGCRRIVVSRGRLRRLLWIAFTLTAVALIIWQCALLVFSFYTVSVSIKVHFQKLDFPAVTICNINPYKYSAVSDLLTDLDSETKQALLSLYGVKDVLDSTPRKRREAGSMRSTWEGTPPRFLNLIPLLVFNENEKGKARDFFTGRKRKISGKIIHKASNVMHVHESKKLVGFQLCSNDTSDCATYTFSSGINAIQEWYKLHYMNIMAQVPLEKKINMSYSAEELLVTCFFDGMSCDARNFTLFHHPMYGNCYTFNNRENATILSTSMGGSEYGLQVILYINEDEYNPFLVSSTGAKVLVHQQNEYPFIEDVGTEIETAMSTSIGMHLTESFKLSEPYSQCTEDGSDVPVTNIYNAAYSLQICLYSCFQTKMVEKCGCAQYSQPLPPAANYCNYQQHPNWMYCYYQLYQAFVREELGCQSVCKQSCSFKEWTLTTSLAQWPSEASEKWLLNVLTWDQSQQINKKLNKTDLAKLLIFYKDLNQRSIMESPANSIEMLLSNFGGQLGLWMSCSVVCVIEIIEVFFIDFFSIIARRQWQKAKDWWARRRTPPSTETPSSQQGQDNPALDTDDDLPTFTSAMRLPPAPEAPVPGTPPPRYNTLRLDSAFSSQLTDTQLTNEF
The data set is described as follows: Ussing chamber: short circuit current in M-1 cells. It is filed as cell-based. The settings on record: Ussing chamber, mouse kidney M-1 cells, amiloride sensitive I_SC, apical application, 37° C.; read-out: IC50. The protocol: Mouse kidney M-1 cells were cultivated in DMEM containing 5% FCS and 5 μM dexamethasone for 10 to 12 days on polyester transwell filters. Filters were inserted into a teflon-coated well-plate which fit into the ussing chamber system. Prior to measurement the medium of M-1 cells was replaced with Caco-2 transport buffer (Invitrogen, Germany). During measurements, the Ussing chamber temperature was kept at 37° C. Short circuit currents (I_sc) were measured in the voltage-clamp mode with the software package Lab View for data acquisition and analysis. The transepithelial electrical resistance (TEER) was determined by the application of voltage steps of ±5 mV every 5 sec. Compounds were administered at a final concentration of 3 μM or at increasing concentrations (1-3-10 μM) to the apical solution. At the end of each experiment the amiloride sensitive I_SC was measured by adding 3 μM amiloride to the apical compartment. Results are expressed as inhibition in percent of the amiloride effect or as IC50.
With the example compounds given above, the following IC50 values were determined in the Ussing Chamber assay: […]

Structures are written as SMILES.

As usually defined, the Papp A→B is how fast a substance crosses the layer from the apical side. A high value points to fast passage. In general, Papp B→A refers to how fast a substance crosses the layer from the basolateral side. As a reminder, the IC50 is the concentration that inhibits the measured activity by half. Take `CCn1c(CNC(=O)c2nc(Cl)c(N)nc2N)[n+](C)c2cc(Cl)c(OCCOCCOC)cc21` [Example 3.8]: in data set [1], the Papp A→B at 90 min, 10 μM is 0.2 ×10⁻⁶ cm/s and the basolateral-to-apical permeability (Papp B→A) at 90 min, 10 μM stood at 0.2 ×10⁻⁶ cm/s. Further, the IC50 in data set [2] is 0.4 nM.
As for `CCn1c(CNC(=O)c2nc(Cl)c(N)nc2N)[n+](CC)c2cc(Cl)c(O[C@H]3CO[C@H]4[C@@H]3OC[C@@H]4O)cc21` [Example 1.5], in data set [1], the Papp A→B at 90 min, 10 μM worked out at 0.3 ×10⁻⁶ cm/s and the Papp B→A at 90 min, 10 μM turned out to be 0.1 ×10⁻⁶ cm/s. The IC50 in data set [2] worked out at 1 nM.
In data set [1], `CCNC(=O)[C@@H](C)Oc1ccc2c(c1)n(CC)c(CNC(=O)c1nc(Cl)c(N)nc1N)[n+]2CC` [Example 3.5] gave a Papp A→B at 90 min, 10 μM of 1 ×10⁻⁶ cm/s and a Papp B→A at 90 min, 10 μM of 0.4 ×10⁻⁶ cm/s. For the same molecule, the IC50 in data set [2] was determined as 0.5 nM.
On the same counts, the results for `CCn1c(CNC(=O)c2nc(Cl)c(N)nc2N)[n+](CC)c2ccc(CNC(=O)CN(C)C)cc21.[Cl-]` [Example 7.1] are below 0.9 ×10⁻⁶ cm/s, 0.2 ×10⁻⁶ cm/s and 2 nM.
In data set [1], `CCOP(=O)([O-])CCCOc1ccc2c(c1)n(CC)c(CNC(=O)c1nc(Cl)c(N)nc1N)[n+]2CCOC` [Example 1.1] yielded a Papp A→B at 90 min, 10 μM of 0.1 ×10⁻⁶ cm/s and a Papp B→A at 90 min, 10 μM of 0.03 ×10⁻⁶ cm/s. In data set [2], the 50% inhibitory concentration (IC50) was 11 nM.
